Measurements taken from article PMC5427923, “A novel CCR2 antagonist inhibits atherogenesis in apoE deficient mice by achieving high receptor occupancy” (Scientific Reports, 2017).

Legend:
apoE−/− mice = assay: Body weight, cholesterol, liver toxicity markers and plasma cytokines in treated apoE−/− mice; type: in vivo, mouse
Description: To determine the effect of the CCR2 antagonist on atherosclerotic lesion development, mice were fed a Western type diet, containing 0.25% cholesterol and 15% cocoabutter (SDS, Sussex, UK) throughout the experiment starting two week before surgery. Carotid artery plaque formation was induced by perivascular collar placement as described previously[46] and from the time of surgery, the mice received daily intraperitoneal injections containing 15a (5 mg/kg/day) or vehicle control (n = 9–10 per group). During the experiment, total body weight and weight gain were measured. Serum total cholesterol levels were determined using an enzymatic colorimetric assay according to manufacturer’s protocol (Roche Diagnostics). Precipath (standardized serum; Boehringer Mannheim, Germany) was used as an internal standard. Plasma cytokine levels were measured by ELISA according to manufacturer’s protocol (BD Biosciences). Blood was collected weekly via tail cut. Total cell count and cellular differentiation patterns in blood were analyzed using an automated XT-2000iV veterinary hematology analyzer (Sysmex Europe GMBH, Norderstedt, Germany). After erythrocyte lysis, blood leukocyte suspensions were stained for surface markers, after which their expression was determined by FACS analysis (FACS Canto, BD Biosciences). After 4 weeks of lesion development, the animals were anaesthetized and blood was collected. After in situ perfusion through the left cardiac chamber, the carotid arteries and hearts were harvested.
Macrophage content of the lesions in carotid arteries and aortic roots was stained using a rat monoclonal MOMA2 antibody (1:1000, Serotec, Kidlington, Oxford, UK). Macrophage positive areas were analyzed using computer-assisted colour-gated analysis, and related to the total intimal surface area (Leica QWin). Liver cryosections of 10 µm thick were prepared and subsequently stained with hematoxylin-eosin to analyze liver morphology, which was assessed using a Leica DMRE microscope (Leica Ltd., Cambridge, England).
Total RNA was extracted from homogenized liver tissue with the guanidium thiocyanate-phenol-bromochloropropane extraction method. RNA concentration, purity and integrity were examined by nanodrop (Nanodrop® Technologies). RNA was reverse transcribed by M-MuLV reverse transcriptase (RevertAid, MBI Fermentas, Landsmeer, The Netherlands) and used for quantitative analysis of the mouse genes ALT, AST, apoH and GC with an ABI PRISM 7700 Taqman apparatus (Applied Biosystems). For qPCR primer pairs refer to Supplementary Table S1.

murine CCR2 (mCCR2) = target: T1, murine CCR2 (mCCR2) (Mus musculus, UniProt P51683); assay: [3H]INCB3344 displacement assay on CHO-mCCR2 membranes; type: binding; settings: displacement of 5 nM [3H]INCB3344, CHO-mCCR2 membranes, 25 °C
T1 construct: expressed in transfected cells; host or cells: CHO cells, transient transfection (PEI) with pcDNA3.1+ plasmid; membrane preparation
T1 sequence (P51683 whole entry): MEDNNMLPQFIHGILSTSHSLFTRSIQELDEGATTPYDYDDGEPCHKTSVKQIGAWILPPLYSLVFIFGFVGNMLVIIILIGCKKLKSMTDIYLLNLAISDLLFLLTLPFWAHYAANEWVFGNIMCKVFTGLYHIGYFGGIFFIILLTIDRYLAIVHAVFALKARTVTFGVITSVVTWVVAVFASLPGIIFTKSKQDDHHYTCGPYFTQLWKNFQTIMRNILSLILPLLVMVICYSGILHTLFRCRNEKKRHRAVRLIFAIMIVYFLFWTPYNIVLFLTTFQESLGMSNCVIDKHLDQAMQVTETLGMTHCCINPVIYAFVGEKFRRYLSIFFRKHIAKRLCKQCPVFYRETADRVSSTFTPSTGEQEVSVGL
Description: Radioligand binding assays were performed in a 100 µL reaction volume containing 50 mM Tris-HCl buffer (pH 7.4), 5 mM MgCl2, 0.1% 3-[(3-cholamidopropyl)-dimethylammonio]-1-propanesulfonic acid (CHAPS), 5 nM [^3H]INCB3344 and 50 to 60 µg of membrane protein at 25 °C. Non-specific binding was determined with 10 μM of the cold ligand INCB3344. Displacement assays were carried out using 9 concentrations of competing ligand, ranging from 0.1 nM to 100 μM, for 120 min of incubation. The kinetic parameters of 15a were also determined at 25 °C using a competition association assay as previously described, [27]. […] Filter-bound radioactivity was determined by scintillation spectrometry after addition of Microscint scintillation cocktail (Perkin-Elmer, Groningen, the Netherlands). […]
All radioligand binding assays were analyzed using Prism 6.0 (GraphPad software, San Diego, CA, USA). […] Ki values were calculated from IC50 values obtained by non-linear regression analysis of the displacement assays and by using the Cheng-Prusoff equation[47]. Dissociation rate constants k off were determined by fitting the dissociation data using an exponential decay model. […] The kinetic profile of compound 15a was determined by calculation of its kinetic rate index (KRI) value. […] In addition, the RT was calculated by obtaining the reciprocal of the k off. Data obtained from in vivo experiments are expressed as mean ± SEM. […]

CC(C)[C@]1(C(=O)N2CCc3ccc(C(F)(F)F)cc3C2)CC[C@@H](N[C@@H]2CCc3cc(Br)ccc32)C1 [15a, ((1S,3R)-3-(((R)-5-bromo-2,3-dihydro-1H-inden-1-yl)amino)-1-isopropylcyclopentyl)(7-(trifluoromethyl)-3,4-dihydroisoquinolin-2(1H)-yl)methanone]
body weight (apoE−/− mice; 5 mg/kg/day i.p., four weeks): not significantly affected | body weight gain (apoE−/− mice; 5 mg/kg/day i.p., four weeks): not affected | plasma total cholesterol levels (apoE−/− mice; 5 mg/kg/day i.p., four weeks): not significantly affected | liver mRNA levels of AST (apoE−/− mice; P = 0.02): somewhat decreased | liver mRNA expression of the toxicity markers ALT, apoH and GC (apoE−/− mice; mouse, in vivo): did not affect | plasma CCL2 levels (apoE−/− mice; mouse, in vivo): increased | plasma IL-6 levels (apoE−/− mice; mouse, in vivo): remained unaffected | liver morphology (apoE−/− mice; versus controls): similar | Ki (murine CCR2 (mCCR2)): 0.0106 µM
